According to patent EP1127071B1, “COMPOUNDS WITH GROWTH HORMONE RELEASING PROPERTIES” (Novo Nordisk A/S, priority 1998, dated 2000):

Experiment: Pharmacokinetics after intravenous and oral administration in fasted Beagle dogs
Type: in vivo
Settings: compared with the compound of example 408 of WO 9723508
Procedure: The pharmakokinetic data were obtained by the following procedure:
The pharmacokinetics of the test compounds were Investigated in fasted Beagle dogs.
Intravenous and oral administration of the test compound, in 5% glucose solution, was separated by a one-week washout.
Blood samples were collected immediately before drug administration (time zero) and than 0.08, 0.25, 0.50, 0.75, 1.0, 1.5. 2.0, 3.0, 4.0, 5.0, and 6.0 hours after administration.
The plasma samples were stored frozen (<-18°C) pending analysis.
An HPLC method with solid phase extraction and W detection was used for the quantification of the compound in plasma.
The pharmacokinetic parameters for the compounds were calculated by non-compartmental methods using the PC based pharmacokinetic software WinNonlin, version 1.1 (Scientific Consulting Inc., Apex, NC, USA).

plasma half-life (administration in 5% glucose solution): shorter plasma half-life | oral bioavailability (oral vs intravenous administration in 5% glucose solution): better oral bioavailability
SMILES: CN(CCc1ccccn1)C(=O)[C@@H](Cc1ccccc1)N(C)C(=O)[C@@H](Cc1ccc2ccccc2c1)N(C)C(=O)/C=C/CC(C)(C)N [Example 1, (2E)-5-Amino-5-methylhex-2-enoic acid N-methyl-N-[(1R)-1-(N-methyl-N-{(1R)-1-[N-methyl-N-(2-(2-pyridinyl)ethyl)carbamoyl]-2-phenylethyl}carbamoyl)-2-(2-naphthyl)ethyl]amide]
